Assay results published in US20070010514A1, “Non-steroidal progesterone receptor modulators” (priority 2005, published 2007).

What was measured:
[1] = molecular target: T1, PR-B progesterone receptor (Homo sapiens, UniProt P06401); assay: Agonism on the PR-B progesterone receptor (transactivation assay); assay type: cell-based; details: for EC50: read-out: Agonistic Activity EC50
T1 sequence (P06401 1-933): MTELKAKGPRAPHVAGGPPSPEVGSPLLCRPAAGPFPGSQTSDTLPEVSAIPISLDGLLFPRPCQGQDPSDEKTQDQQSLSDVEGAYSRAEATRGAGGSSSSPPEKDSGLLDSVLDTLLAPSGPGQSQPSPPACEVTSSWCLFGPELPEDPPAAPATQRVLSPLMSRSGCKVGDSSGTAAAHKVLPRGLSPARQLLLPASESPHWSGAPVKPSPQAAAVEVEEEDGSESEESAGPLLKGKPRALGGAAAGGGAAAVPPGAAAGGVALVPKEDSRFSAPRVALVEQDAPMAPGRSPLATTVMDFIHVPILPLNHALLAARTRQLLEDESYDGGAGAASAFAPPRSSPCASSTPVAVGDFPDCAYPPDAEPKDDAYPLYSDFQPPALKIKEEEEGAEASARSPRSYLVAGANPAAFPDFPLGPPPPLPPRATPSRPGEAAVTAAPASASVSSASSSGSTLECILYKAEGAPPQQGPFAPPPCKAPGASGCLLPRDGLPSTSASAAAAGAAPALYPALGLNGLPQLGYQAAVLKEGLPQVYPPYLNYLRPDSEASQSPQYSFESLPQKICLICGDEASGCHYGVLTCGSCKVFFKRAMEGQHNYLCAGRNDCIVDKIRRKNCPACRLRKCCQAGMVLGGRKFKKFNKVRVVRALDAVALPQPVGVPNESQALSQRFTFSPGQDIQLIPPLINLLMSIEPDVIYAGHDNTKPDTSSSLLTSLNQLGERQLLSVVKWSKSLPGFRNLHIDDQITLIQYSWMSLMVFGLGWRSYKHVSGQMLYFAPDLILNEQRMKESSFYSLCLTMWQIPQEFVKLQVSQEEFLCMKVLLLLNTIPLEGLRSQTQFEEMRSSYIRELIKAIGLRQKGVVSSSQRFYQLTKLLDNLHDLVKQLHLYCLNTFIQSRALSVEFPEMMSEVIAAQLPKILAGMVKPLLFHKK
Protocol: Agonism on the PR-B Progesterone Receptor
The transactivation assay is carried out as described in Fuhrmann et al. (Fuhrmann U., Hess-Stump H., Cleve A., Neef G., Schwede W., Hoffmann J., Fritzemeier K.-H., Chwalisz K., Journal of Medicinal Chem, 43, 26, 2000, 5010-5016).

[2] = molecular target: T1, PR-B progesterone receptor; assay: Antagonism at the PR-B progesterone receptor (transactivation assay); assay type: cell-based; details: for IC50: read-out: Antagonistic Activity IC50
Protocol: Antagonism at the PR-B Progesterone Receptor
The transactivation assay is carried out as described in WO 02/054064.

Agonistic Activity Efficacy [1] [%]	EC50 [1] [nM]	Antagonistic Activity Efficacy [2] [%]	IC50 [2] [nM]	SMILES
10	0.2	86	0.2	Cc1noc(=O)c2ccc(NC(=O)C(O)(C#Cc3ccccc3)CC3(c4ccccc4Cl)CCCC3)cc12 (racemic) [Example 5, rac-6-{2-[(2-Chlorophenyl)cyclopentyl]methyl-2-hydroxy-4-phenylbut-3-ynoylamino}-4-methyl-2,3-benzoxazin-1-one]
35	7	53	6	C#CC(O)(CC(C)(C)c1ccccc1)C(=O)Nc1ccc2c(=O)onc(C)c2c1 (racemic) [Example 14, rac-6-[2-Ethynyl-2-hydroxy-4-methyl-4-phenylpentanoylamino]-4-methyl-2,3-benzoxazin-1-one]
13	0.5	82	0.7	Cc1noc(=O)c2ccc(NC(=O)C(O)(C#Cc3ccccc3)CC(C)(C)c3ccccc3)cc12 (racemic) [Example 16, rac-6-[2-Hydroxy-4-methyl-4-phenyl-2-(phenylethynyl)pentanoylamino]-4-methyl-2,3-benzoxazin-1-one]
8	–	89	0.2	COc1ccc(C#CC(O)(CC(C)(C)c2ccccc2)C(=O)Nc2ccc3c(=O)onc(C)c3c2)cc1 (racemic) [Example 18, rac-6-[2-Hydroxy-2-[(4-methoxyphenyl)ethynyl]-4-methyl-4-phenylpentanoylamino]-4-methyl-2,3-benzoxazin-1-one]
0	–	100	2	Cc1noc(=O)c2ccc(NC(=O)C(O)(C#Cc3ccccc3C(F)(F)F)CC(C)(C)c3ccccc3)cc12 (racemic) [Example 24, rac-6-[2-Hydroxy-4-methyl-4-phenyl-2-[(2-trifluoromethylphenyl)ethynyl]-pentanoylamino]-4-methyl-2,3-benzoxazin-1-one]
0	–	100	2	Cc1cc(C)c(C#CC(O)(CC(C)(C)c2ccccc2)C(=O)Nc2ccc3c(=O)onc(C)c3c2)cc1C (racemic) [Example 35, rac-6-[2-[(2,4,5-Trimethylphenyl)ethynyl]-2-hydroxy-4-methyl-4-phenylpentanoylamino]-4-methyl-2,3-benzoxazin-1-one]
7	–	88	0.03	Cc1ccc(C#CC(O)(CC(C)(C)c2ccccc2)C(=O)Nc2ccc3c(=O)onc(C)c3c2)cc1 (single isomer, unassigned; (-)) [Example 17b, (−)-6-[2-Hydroxy-4-methyl-2-[(4-methylphenyl)ethynyl]-4-phenylpentanoylamino]-4-methyl-2,3-benzoxazin-1-one]
